Patent publication US20100113334A1, “METHODS FOR REDUCING OR PREVENTING TRANSMISSION OF NOSOCOMIAL PATHOGENS IN A HEALTH CARE FACILITY” (priority 2003, published 2010)
Entries after “also recorded” stand apart in the source; their conditions may differ. Where two headings read alike, the source gives them in different places.

Key:
S. pneumoniae = settings: 20 strains; cited from earlier work
[1] = Oral administration to healthy male volunteers: absorption and excretion (Example 7, 7.1); format: in vivo, human
Description: Both bioassay and HPLC-based assays to assess the absorption, distribution, metabolism, and excretion were utilized in these studies.
The predetermined dose was reconstituted in 5 mL water per vial, mixed with 50 mL of sweetened, aromatized solution, and immediately administered orally to the subjects.

[2] = Storage stability of ramoplanin granules for oral solution; format: physicochemical
Description: The contents of the packet can be reconstituted with approximately 15-30 mL of water, and the resulting solution either consumed directly, or further diluted with water, cranberry juice, apple juice, or 7-Up prior to drinking. After consumption, the drug may be followed with subsequent amounts of these beverages or with food (e.g., cracker, bread). […] Alternatively, ramoplanin is available as capsules containing pharmaceutically acceptable excipients that are generally regarded as safe.

Bacillus spp. = settings: 10 strains; cited from earlier work
[3] = system: indigenous stool microflora; test: DGGE of PCR-amplified bacterial ribosomal RNA genes from stool (Example 3); format: in vivo, mice; settings: oral ramoplanin 100 μg/mL in drinking water
[4] = system: VRE (VRE faecium, VRE faecalis); test: In vitro activity (MIC90), internal Phase II isolates; format: cell-based, vancomycin-resistant Enterococcus; settings: 235 strains, internal Phase II data
Bacteroides species = test: Effect on indigenous stool microflora (Example 3), quantitative culture; format: in vivo, mice; settings: 100 μg/mL in drinking water, seven days
[5] = system: facultative and aerobic gram-negative bacilli; test: as above; format: in vivo, mice
total anaerobes = test: as above; format: in vivo, mice; settings: 100 μg/mL in drinking water, seven days
VRE = test: Effect of prior ramoplanin treatment on establishment of VRE colonization (Example 4); format: in vivo, mice; settings: 10^7 CFU VRE 4 hours or 1, 2, 4 days after 7 days of 100 μg/ml; P>0.05 vs controls
From the text: The density of VRE in stool was monitored before and 1 and 4 days after inoculation. Four mice were included in each treatment group.

Enterococcus species = test: Effect on indigenous stool microflora (Example 3), quantitative culture; format: in vivo, mice
[6] = In vitro interaction with human gastro-intestinal contents
From the text: The in vitro interaction of ramoplanin with human gastro-intestinal contents was studied.

[7] = single oral doses up to 1000 mg, multiple 200, 400 or 800 mg BID 10 days, bioassay and HPLC

## Ramoplanin
S. pneumoniae
  Ramoplanin MIC90: <0.03 µg/mL
100 μg/ml dose, 3 days after discontinuation (day 10)
  ramoplanin in stool: no ramoplanin was detectable
100 μg/ml dose, day 7 of treatment, n=5 mice
  concentration in stool, range: 156 to 312.5 µg/g
300 μg/ml dose, day 7, n=5 mice
  concentration in stool, range: 300 to 320 µg/g
[1]; 200, 400 or 800 mg twice a day, ten days
  absorption from the human gastro-intestinal tract: very little, if any, is absorbed; also recorded: No absorption
[1]; Day 3, 200 mg group
  faecal concentration, average: 827 µg/g
[1]; Day 3, 400 mg group
  faecal concentration, average: 1742 µg/g
[1]; Day 3, 800 mg group
  faecal concentration, average: 1901 µg/g
[1]; Day 10, 200 mg group
  faecal concentration, average: 949 µg/g
[1]; Day 10, 400 mg group
  faecal concentration, average: 1417 µg/g
[1]; Day 10, 800 mg group
  faecal concentration, average: 2647 µg/g
[1]; day 1 or 5 and pooled urine up to 72-96 after the last dose
  ramoplanin in urine: no ramoplanin was detected
[1]; days 1, 5, 10, 0.5-12 hours after the morning dose, 200, 400 or 800 mg twice a day
  ramoplanin in serum: not detected
[1]; four days post-treatment
  faecal concentrations post-treatment: remained detectable in some subjects
[1]; [7]
  ramoplanin in serum/plasma: not detected
  ramoplanin in urine: not detected
[1]; up to Day 4 post-treatment
  cumulative recovery in faeces: 25 % of the administered dose
[2]; refrigerated conditions
  stability of 400 mg granulated powder packets: stable for at least one year
[2]; stored at refrigerated conditions
  shelf life of reconstituted aqueous solution: 48 h
Bacillus spp.
  Ramoplanin MIC90: 0.25 µg/mL
[3]
  stool DGGE patterns, mean similarity indices in comparison to the pre-treatment patterns: 72%
[4]
  Ramoplanin MIC90: 0.5 µg/mL
Bacteroides species
  mean density of Bacteroides species in stool: not significantly affected
[5]; 3 days after discontinuation (day 10)
  mean density of total facultative and aerobic gram-negative bacilli in stool: not significantly different from baseline
[5]; day 7 of treatment, P<0.05
  mean density of total facultative and aerobic gram-negative bacilli in stool: increased significantly
Total anaerobes
  mean density of total anaerobes in stool: not significantly affected
VRE
  overgrowth / establishment of VRE stool colonization after prior ramoplanin treatment: did not facilitate the establishment of stool colonization; also recorded: did not develop significant overgrowth of VRE
Enterococcus species; at least 11 days after discontinuation (day 18)
  Enterococcus species in stool: remained significantly reduced
Enterococcus species; ramoplanin treatment, P<0.001
  Enterococcus species in stool: significantly reduced
[6]
  binding to solid components of faeces: bind reversibly
  microbiological activity in faeces: microbiologically active in faeces
